# Source: paper PMC7044277 (Nature Communications, 2020)
# Several values for one entry are separate records, joined by “and”; a condition that tells them apart may be missing. Equal entries are not always repeated.
# How the values were obtained:
# Assay type in all cases: cell-based
# 320 non-olfactory GPCRs [1] = target: 320 non-olfactory GPCRs (Homo sapiens, UniProt P21554)
# 320 non-olfactory GPCRs [2] = target: T1, 320 non-olfactory GPCRs (Homo sapiens, UniProt P46092)
# T1 construct: expressed in transfected cells; host or cells: HTLA cells
# T1 sequence (P46092 whole entry): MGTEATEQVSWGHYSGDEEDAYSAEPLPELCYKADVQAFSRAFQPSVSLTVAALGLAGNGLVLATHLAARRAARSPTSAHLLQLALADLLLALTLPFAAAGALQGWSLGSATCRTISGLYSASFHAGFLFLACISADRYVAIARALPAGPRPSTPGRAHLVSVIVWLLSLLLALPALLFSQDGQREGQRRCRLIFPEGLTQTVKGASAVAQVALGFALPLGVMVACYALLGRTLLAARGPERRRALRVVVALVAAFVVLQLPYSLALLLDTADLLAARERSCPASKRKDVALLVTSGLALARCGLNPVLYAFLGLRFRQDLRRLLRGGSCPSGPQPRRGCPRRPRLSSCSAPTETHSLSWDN
# 320 non-olfactory GPCRs [3] = target: 320 non-olfactory GPCRs (Homo sapiens, UniProt Q15743); details: receptor GPR68 no V2 Tail; replicate values, Fig_4g
# Sequence of 320 non-olfactory GPCRs (Homo sapiens, UniProt Q15743) (Q15743 whole entry): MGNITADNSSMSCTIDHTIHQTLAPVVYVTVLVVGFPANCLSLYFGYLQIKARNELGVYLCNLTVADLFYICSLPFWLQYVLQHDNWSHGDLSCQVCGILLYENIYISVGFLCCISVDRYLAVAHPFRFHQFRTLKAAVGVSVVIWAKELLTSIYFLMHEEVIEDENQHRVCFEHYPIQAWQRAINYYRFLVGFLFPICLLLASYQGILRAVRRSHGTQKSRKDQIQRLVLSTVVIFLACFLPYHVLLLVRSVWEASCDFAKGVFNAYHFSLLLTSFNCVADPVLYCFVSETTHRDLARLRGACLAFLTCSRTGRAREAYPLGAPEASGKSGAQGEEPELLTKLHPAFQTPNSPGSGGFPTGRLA
# 320 non-olfactory GPCRs [4] = target: T2, 320 non-olfactory GPCRs (Homo sapiens, UniProt Q9HBW9)
# T2 construct: expressed in transfected cells; host or cells: HTLA cells
# T2 sequence (Q9HBW9 20-690): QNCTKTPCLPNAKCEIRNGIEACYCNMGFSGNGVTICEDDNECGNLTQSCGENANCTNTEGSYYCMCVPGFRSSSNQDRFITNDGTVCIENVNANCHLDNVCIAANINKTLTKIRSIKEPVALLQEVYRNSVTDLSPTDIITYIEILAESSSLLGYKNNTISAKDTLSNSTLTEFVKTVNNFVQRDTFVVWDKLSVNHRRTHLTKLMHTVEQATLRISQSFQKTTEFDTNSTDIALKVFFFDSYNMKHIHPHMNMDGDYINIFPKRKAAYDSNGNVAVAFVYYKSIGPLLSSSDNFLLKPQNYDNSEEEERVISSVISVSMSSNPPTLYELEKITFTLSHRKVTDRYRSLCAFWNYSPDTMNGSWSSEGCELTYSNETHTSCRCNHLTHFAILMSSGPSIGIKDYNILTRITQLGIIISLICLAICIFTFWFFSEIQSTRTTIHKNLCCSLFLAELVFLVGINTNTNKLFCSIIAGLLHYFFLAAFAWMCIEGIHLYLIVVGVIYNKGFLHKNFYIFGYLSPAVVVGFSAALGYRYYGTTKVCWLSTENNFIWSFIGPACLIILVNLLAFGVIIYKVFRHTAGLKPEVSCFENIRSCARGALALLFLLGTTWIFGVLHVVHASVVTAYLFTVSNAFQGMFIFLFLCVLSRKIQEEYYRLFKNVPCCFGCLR
# 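For Fold of Basal in this document: compound tested at 1 µM final concentration.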
# 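For GPCRome agonism screen response in this document: fold over basal response of each receptor without drug.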
# Sequence of 320 non-olfactory GPCRs (Homo sapiens, UniProt P21554) (P21554 whole entry): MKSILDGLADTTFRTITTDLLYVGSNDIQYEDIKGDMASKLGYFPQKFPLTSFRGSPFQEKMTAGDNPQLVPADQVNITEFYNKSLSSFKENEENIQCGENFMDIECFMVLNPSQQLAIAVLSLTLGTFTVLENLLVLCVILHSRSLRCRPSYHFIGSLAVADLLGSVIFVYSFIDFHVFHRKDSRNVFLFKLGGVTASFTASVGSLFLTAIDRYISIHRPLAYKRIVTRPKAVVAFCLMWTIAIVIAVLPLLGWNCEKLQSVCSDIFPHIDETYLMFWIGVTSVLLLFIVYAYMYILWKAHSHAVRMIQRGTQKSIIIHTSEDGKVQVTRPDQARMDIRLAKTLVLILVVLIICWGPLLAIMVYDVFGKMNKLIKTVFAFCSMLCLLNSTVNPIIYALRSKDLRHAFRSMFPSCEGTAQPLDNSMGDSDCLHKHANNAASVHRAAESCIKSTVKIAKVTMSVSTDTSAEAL
smiles,measurement,setting,value
CCOc1cccc2cc(C(C)NCC3(O)CCCCC3)oc12 (stereo not shown) [O4LE6],Fold of Basal,320 non-olfactory GPCRs [1],1.089 and 1.197 and 0.9218 and 0.8315
same,Fold of Basal,320 non-olfactory GPCRs [2],0.7929 and 1.009 and 0.769 and 1.275
same,GPCRome agonism screen response,320 non-olfactory GPCRs [3],1.945 and 0.5249 and 1.001 and 1.345
same,Fold of Basal,320 non-olfactory GPCRs [4],1.158 and 1.093 and 1.161 and 0.9931
